# Results taken from patent US20070049564A1 (Wyeth, priority 2005, published 2007).
# Read-outs that look alike come from different tables or passages of the source.
# Legend:
# E. coli GC 6465 = assay: MIC, broth microdilution; settings: Escherichia coli
# E. coli GC 2231 = assay: MIC, broth microdilution; settings: Escherichia coli
# Procedure: Antimicrobial susceptibility testing. The in vitro activities of the antibiotics are determined by the broth microdilution method as recommended by the National Committee for Clinical Laboratory Standards (NCCLS) (1). Mueller-Hinton II broth (MHBII)(BBL Cockeysville, Md.) is the medium employed in the testing procedures. Microtiter plates containing serial dilutions of each antimicrobial agent are inoculated with each organism to yield the appropriate density (10^5 CFU/ml) in a 100 μl final volume. The plates are incubated for 18-22 hours at 35° C. in ambient air.
# Representative compounds were first incubated in mouse serum for an hour prior to the in vitro testing against a panel of selected gram-positive and gram-negative bacteria strains. All compounds were also pre-incubated in water for an hour prior to testing as control.
# E. coli GC 2233 = assay: MIC, broth microdilution; settings: Escherichia coli
# S. aureus GC 6466 = assay: MIC, broth microdilution; settings: Staphylococcus aureus
# Procedure: Antimicrobial susceptibility testing. The in vitro activities of the antibiotics are determined by the broth microdilution method as recommended by the National Committee for Clinical Laboratory Standards (NCCLS) (1). Mueller-Hinton II broth (MHBII)(BBL Cockeysville, Md.) is the medium employed in the testing procedures. Microtiter plates containing serial dilutions of each antimicrobial agent are inoculated with each organism to yield the appropriate density (10^5 CFU/ml) in a 100 μl final volume. The plates are incubated for 18-22 hours at 35° C. in ambient air. […] Standard Pharmacological Test Procedures
# Presented in Tables I-XIII are representative compounds of Formula I which were evaluated against a panel of 40 selected gram-positive and gram-negative bacteria strains by pre-incubation in water, mouse serum or human serum. Representative compounds were first incubated in mouse serum for an hour prior to the in vitro testing against a panel of selected gram-positive and gram-negative bacteria strains. All compounds were also pre-incubated in water for an hour prior to testing as control. Representative compounds of Formula I were incubated in human serum prior to MIC determination.
# E. coli GC 2235 = assay: MIC, broth microdilution; settings: Escherichia coli
# E. faecium GC 4556 = assay: MIC, broth microdilution; settings: Enterococcus faecium
# S. typhimurium GC 2172 = assay: MIC, broth microdilution; settings: Salmonella enterica, TYPHIMURIUM
# E. faecalis GC 2242 = assay: MIC, broth microdilution; settings: Enterococcus faecalis
# S. aureus GC 4536 = assay: MIC, broth microdilution; settings: Staphylococcus aureus
# c. albicans GC 3066 = assay: MIC, broth microdilution
# E. coli = assay: Range of MIC for E. coli strains; settings: Escherichia coli
# Staph. = assay: Range of MIC for Staph. strains, including MRSA; settings: Staphylococcus aureus
# S. aureus GC 6467 = assay: MIC, broth microdilution; settings: Staphylococcus aureus
# E. coli GC 4560 = assay: MIC, broth microdilution; settings: Escherichia coli
# E. faecium GC 2243 = assay: MIC, broth microdilution; settings: Enterococcus faecium
# S. aureus GC 6469 = assay: MIC, broth microdilution; settings: Staphylococcus aureus
# E. coli GC 2270 = assay: MIC, broth microdilution; settings: Escherichia coli
# E. coli GC 1073 = assay: MIC, broth microdilution; settings: Escherichia coli
# S. aureus GC 2216 = assay: MIC, broth microdilution; settings: Staphylococcus aureus
# S. aureus GC 1079 = assay: MIC, broth microdilution; settings: Staphylococcus aureus
smiles,measurement,setting,value
"CCCCOC(=O)N(CC(=O)Nc1cc(N(C)C)c2c(c1O)C(=O)C1=C(O)[C@]3(O)C(=O)C(C(N)=O)=C(O)[C@@H](N(C)C)[C@@H]3C[C@@H]1C2)C(C)(C)C [Example 58, butyl 2-{[(5aR,6aS,7S,10aS)-9-(aminocarbonyl)-4,7-bis(dimethylamino)-1,8,10a,11-tetrahydroxy-10,12-dioxo-5,5a,6,6a,7,10,10a,12-octahydrotetracen-2-yl]amino}-2-oxoethyl(tert-butyl)carbamate]",MIC,"E. coli GC 6465; GC6465, read-out: MINIMAL INHIBITORY CONCENTRATION MIC, Human Serum",> 64 µg/mL
same,MIC,"E. coli GC 6465; GC6465, read-out: MINIMAL INHIBITORY CONCENTRATION MIC, Mouse Serum",> 64 µg/mL
same,MIC,"E. coli GC 6465; GC6465, read-out: MINIMAL INHIBITORY CONCENTRATION MIC, Water",> 64 µg/mL
same,MIC,"E. coli GC 2231; GC2231, read-out: MINIMAL INHIBITORY CONCENTRATION MIC, Human Serum",> 64 µg/mL
same,MIC,"E. coli GC 2231; GC2231, read-out: MINIMAL INHIBITORY CONCENTRATION MIC, Mouse Serum",> 64 µg/mL
same,MIC,"E. coli GC 2231; GC2231, read-out: MINIMAL INHIBITORY CONCENTRATION MIC, Water",> 64 µg/mL
same,MIC,"E. coli GC 2233; GC2233, read-out: MINIMAL INHIBITORY CONCENTRATION MIC, Human Serum",> 64 µg/mL
same,MIC,"E. coli GC 2233; GC2233, read-out: MINIMAL INHIBITORY CONCENTRATION MIC, Mouse Serum",> 64 µg/mL
same,MIC,"E. coli GC 2233; GC2233, read-out: MINIMAL INHIBITORY CONCENTRATION MIC, Water",> 64 µg/mL
same,MIC,"S. aureus GC 6466; GC6466, read-out: MINIMAL INHIBITORY CONCENTRATION MIC, Human Serum",4 µg/mL
same,MIC,"S. aureus GC 6466; GC6466, read-out: MINIMAL INHIBITORY CONCENTRATION MIC, Mouse Serum",2 µg/mL
same,MIC,"S. aureus GC 6466; GC6466, read-out: MINIMAL INHIBITORY CONCENTRATION MIC, Water",4 µg/mL
same,MIC,"E. coli GC 2235; GC2235, read-out: MINIMAL INHIBITORY CONCENTRATION MIC, Human Serum",> 64 µg/mL
same,MIC,"E. coli GC 2235; GC2235, read-out: MINIMAL INHIBITORY CONCENTRATION MIC, Mouse Serum",> 64 µg/mL
same,MIC,"E. coli GC 2235; GC2235, read-out: MINIMAL INHIBITORY CONCENTRATION MIC, Water",> 64 µg/mL
same,MIC,"E. faecium GC 4556; GC4556, read-out: MINIMAL INHIBITORY CONCENTRATION MIC, Human Serum",4 µg/mL
same,MIC,"E. faecium GC 4556; GC4556, read-out: MINIMAL INHIBITORY CONCENTRATION MIC, Mouse Serum",2 µg/mL
same,MIC,"E. faecium GC 4556; GC4556, read-out: MINIMAL INHIBITORY CONCENTRATION MIC, Water",4 µg/mL
same,MIC,"S. typhimurium GC 2172; read-out: MINIMAL INHIBITORY CONCENTRATION MIC, Human Serum",> 64 µg/mL
same,MIC,"S. typhimurium GC 2172; read-out: MINIMAL INHIBITORY CONCENTRATION MIC, Mouse Serum",> 64 µg/mL
same,MIC,"S. typhimurium GC 2172; read-out: MINIMAL INHIBITORY CONCENTRATION MIC, Water",> 64 µg/mL
same,MIC,"E. faecalis GC 2242; GC2242, read-out: MINIMAL INHIBITORY CONCENTRATION MIC, Human Serum",4 µg/mL
same,MIC,"E. faecalis GC 2242; GC2242, read-out: MINIMAL INHIBITORY CONCENTRATION MIC, Mouse Serum",2 µg/mL
same,MIC,"E. faecalis GC 2242; GC2242, read-out: MINIMAL INHIBITORY CONCENTRATION MIC, Water",4 µg/mL
same,MIC,"S. aureus GC 4536; GC4536, read-out: MINIMAL INHIBITORY CONCENTRATION MIC, Human Serum",4 µg/mL
same,MIC,"S. aureus GC 4536; GC4536, read-out: MINIMAL INHIBITORY CONCENTRATION MIC, Mouse Serum",2 µg/mL
same,MIC,"S. aureus GC 4536; GC4536, read-out: MINIMAL INHIBITORY CONCENTRATION MIC, Water",4 µg/mL
same,MIC,"c. albicans GC 3066; Candida albicans, GC3066, read-out: MINIMAL INHIBITORY CONCENTRATION MIC",> 64 µg/mL
same,MINIMAL INHIBITORY CONCENTRATION MIC,c. albicans GC 3066; Human Serum,>64 UG/ML
same,MINIMAL INHIBITORY CONCENTRATION MIC,c. albicans GC 3066; Mouse Serum,>64 UG/ML
same,MIC,"E. coli; 20 h, read-out: Range of MIC, E. coli (Mouse Serum)",> 64 µg/mL
same,MIC,"E. coli; read-out: Minimum inhibitory concentration (MIC), E. coli (Human Serum)",> 64 µg/mL
same,MIC,"E. coli; read-out: Minimum inhibitory concentration (MIC), E. coli (water)",> 64 µg/mL
same,MIC,"E. coli; read-out: Range of MIC, E. coli (Water)",> 64 µg/mL
same,MIC,"Staph.; MRSA, read-out: Range of MIC, Staph (Mouse Serum)",2 to 4 µg/mL
same,MIC,"Staph.; MRSA, read-out: Range of MIC, Staph (Water)",4 to 8 µg/mL
same,MIC,"Staph.; read-out: Minimum inhibitory concentration (MIC), Staph (Human Serum)",4 µg/mL
same,MIC,"Staph.; read-out: Minimum inhibitory concentration (MIC), Staph (Water)",4 to 8 µg/mL
same,MIC,"S. aureus GC 6467; GC6467, read-out: MINIMAL INHIBITORY CONCENTRATION MIC, Human Serum",4 µg/mL
same,MIC,"S. aureus GC 6467; GC6467, read-out: MINIMAL INHIBITORY CONCENTRATION MIC, Mouse Serum",2 µg/mL
same,MIC,"S. aureus GC 6467; GC6467, read-out: MINIMAL INHIBITORY CONCENTRATION MIC, Water",4 µg/mL
same,MIC,"E. coli GC 4560; GC4560, read-out: MINIMAL INHIBITORY CONCENTRATION MIC, Human Serum",4 µg/mL
same,MIC,"E. coli GC 4560; GC4560, read-out: MINIMAL INHIBITORY CONCENTRATION MIC, Mouse Serum",4 µg/mL
same,MIC,"E. coli GC 4560; GC4560, read-out: MINIMAL INHIBITORY CONCENTRATION MIC, Water",4 µg/mL
same,MIC,"E. faecium GC 2243; GC2243, read-out: MINIMAL INHIBITORY CONCENTRATION MIC, Human Serum",4 µg/mL
same,MIC,"E. faecium GC 2243; GC2243, read-out: MINIMAL INHIBITORY CONCENTRATION MIC, Mouse Serum",2 µg/mL
same,MIC,"E. faecium GC 2243; GC2243, read-out: MINIMAL INHIBITORY CONCENTRATION MIC, Water",4 µg/mL
same,MIC,"S. aureus GC 6469; GC6469, read-out: MINIMAL INHIBITORY CONCENTRATION MIC, Human Serum",4 µg/mL
same,MIC,"S. aureus GC 6469; GC6469, read-out: MINIMAL INHIBITORY CONCENTRATION MIC, Mouse Serum",2 µg/mL
same,MIC,"S. aureus GC 6469; GC6469, read-out: MINIMAL INHIBITORY CONCENTRATION MIC, Water",4 µg/mL
same,MIC,"E. coli GC 2270; GC2270, read-out: MINIMAL INHIBITORY CONCENTRATION MIC, Human Serum",> 64 µg/mL
same,MIC,"E. coli GC 2270; GC2270, read-out: MINIMAL INHIBITORY CONCENTRATION MIC, Mouse Serum",> 64 µg/mL
same,MIC,"E. coli GC 2270; GC2270, read-out: MINIMAL INHIBITORY CONCENTRATION MIC, Water",> 64 µg/mL
same,MIC,"E. coli GC 1073; GC1073, read-out: MINIMAL INHIBITORY CONCENTRATION MIC, Human Serum",> 64 µg/mL
same,MIC,"E. coli GC 1073; GC1073, read-out: MINIMAL INHIBITORY CONCENTRATION MIC, Mouse Serum",> 64 µg/mL
same,MIC,"E. coli GC 1073; GC1073, read-out: MINIMAL INHIBITORY CONCENTRATION MIC, Water",> 64 µg/mL
same,MIC,"S. aureus GC 2216; GC2216, read-out: MINIMAL INHIBITORY CONCENTRATION MIC, Human Serum",4 µg/mL
same,MIC,"S. aureus GC 2216; GC2216, read-out: MINIMAL INHIBITORY CONCENTRATION MIC, Mouse Serum",2 µg/mL
same,MIC,"S. aureus GC 2216; GC2216, read-out: MINIMAL INHIBITORY CONCENTRATION MIC, Water",4 µg/mL
same,MIC,"S. aureus GC 1079; GC1079, read-out: MINIMAL INHIBITORY CONCENTRATION MIC, Human Serum",4 µg/mL
same,MIC,"S. aureus GC 1079; GC1079, read-out: MINIMAL INHIBITORY CONCENTRATION MIC, Mouse Serum",2 µg/mL
same,MIC,"S. aureus GC 1079; GC1079, read-out: MINIMAL INHIBITORY CONCENTRATION MIC, Water",8 µg/mL
